# According to the supplement of paper PMC10883282:
# ± gives the standard deviation of the averaged measurements.
# System: RD-ES
# Assay: relative viability vs DMSO control (72 h) (fraction); higher = more viable cells
# Procedure, shortened: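 Sarcoma cell lines in 384-well plates, seeded to reach 80–90% confluence, were given compound after 24 h and kept 72 h at 37 °C, 5% CO2, with 0.1% DMSO vehicle and a 5 µM positive control. Relative viability came from ATPLite as percent growth, averaged over up to triplicate wells. On the rescaled values, 1 equals full and 0 equals none.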
Structure (SMILES),relative viability (0.00017 µM),relative viability (0.00051 µM),relative viability (0.00152 µM),relative viability (0.00457 µM),relative viability (0.01372 µM),relative viability (0.04115 µM),relative viability (0.1235 µM),relative viability (0.3704 µM),relative viability (1.111 µM),relative viability (3.333 µM),relative viability (10 µM)
Cc1cc(C)c(/C=C2\C(=O)Nc3ccccc32)[nH]1 [Semaxanib],0.962 ± 0.022,0.973 ± 0.034,0.961 ± 0.052,0.994 ± 0.02,0.969 ± 0.053,0.976 ± 0.013,0.93 ± 0.024,0.965 ± 0.026,0.915 ± 0.064,0.871 ± 0.033,0.792 ± 0.012
O=C(Nc1cnn2ccc(N3CCC[C@@H]3c3cc(F)ccc3F)nc12)N1CC[C@H](O)C1 [Larotrectinib],0.95 ± 0.031,0.963 ± 0.01,0.978 ± 0.05,0.961 ± 0.024,0.9532 ± 0.0046,0.976 ± 0.016,0.961 ± 0.013,0.964 ± 0.014,0.968 ± 0.022,0.931 ± 0.052,0.932 ± 0.042
C=CC(=O)N1CCC[C@@H](n2nc(-c3ccc(Oc4ccccc4)cc3)c3c(N)ncnc32)C1 [Ibrutinib],0.985 ± 0.032,0.967 ± 0.043,0.993 ± 0.05,0.97 ± 0.038,0.976 ± 0.04,0.988 ± 0.032,0.957 ± 0.034,0.969 ± 0.015,0.989 ± 0.04,0.957 ± 0.031,0.882 ± 0.013
CC(C)N1CCN(Cc2cnc(-c3cc(-c4cccc5[nH]ccc45)cc4[nH]ncc34)o2)CC1 [Nemiralisib],1 ± 0.036,1 ± 0.016,0.973 ± 0.028,0.978 ± 0.023,0.987 ± 0.03,1.02 ± 0.042,0.9842 ± 0.004,1.01 ± 0.041,0.984 ± 0.036,0.854 ± 0.016,0.223 ± 0.033
CN1CCN(c2ccc3nc(-c4c(N)c5c(F)cccc5[nH]c4=O)[nH]c3c2)CC1 [Dovitinib],0.955 ± 0.025,0.944 ± 0.067,0.949 ± 0.024,0.943 ± 0.026,0.937 ± 0.014,0.893 ± 0.021,0.899 ± 0.045,0.829 ± 0.027,0.575 ± 0.013,0.24 ± 0.019,0.0296 ± 0.0072
COc1c(OCCCN2CCOCC2)ccc2c1N=C(NC(=O)c1cnc(N)nc1)N1CCN=C21 [Copanlisib],0.977 ± 0.031,0.932 ± 0.023,0.947 ± 0.056,0.638 ± 0.087,0.571 ± 0.05,0.494 ± 0.023,0.344 ± 0.013,0.218 ± 0.0085,0.0703 ± 0.0047,0.007 ± 0.00036,0.0101 ± 0.0011
CNC(=O)c1ccc(-c2cnc3ncc(Cc4ccc5ncccc5c4)n3n2)cc1F [Capmatinib],0.992 ± 0.014,1.005 ± 0.0083,0.9871 ± 0.0074,0.994 ± 0.017,0.98 ± 0.021,1 ± 0.018,1.01 ± 0.023,1.03 ± 0.024,1.03 ± 0.025,1.02 ± 0.011,1 ± 0.028
Cn1cc(-c2cc3c(N4CCN(c5ncc([C@@](C)(N)c6ccc(F)cc6)cn5)CC4)ncnn3c2)cn1 [Avapritinib],0.927 ± 0.028,0.928 ± 0.034,0.934 ± 0.015,0.922 ± 0.026,0.936 ± 0.02,0.932 ± 0.013,0.9089 ± 0.0059,0.884 ± 0.025,0.84 ± 0.044,0.787 ± 0.047,0.716 ± 0.012
CCCS(=O)(=O)Nc1ccc(F)c(C(=O)c2c[nH]c3ncc(-c4ccc(Cl)cc4)cc23)c1F [Vemurafenib],0.978 ± 0.032,0.983 ± 0.024,0.975 ± 0.044,0.995 ± 0.051,0.982 ± 0.039,0.994 ± 0.05,0.99 ± 0.041,0.991 ± 0.047,0.984 ± 0.039,0.967 ± 0.042,0.7 ± 0.27
CC1(C)CNc2cc(NC(=O)c3cccnc3NCc3ccncc3)ccc21 [Motesanib],0.969 ± 0.051,0.962 ± 0.048,0.957 ± 0.05,1.01 ± 0.038,0.964 ± 0.053,0.994 ± 0.033,0.989 ± 0.035,0.991 ± 0.04,0.989 ± 0.038,0.974 ± 0.062,0.846 ± 0.015
C=CC(=O)Nc1cccc(Oc2nc(Nc3ccc(N4CCN(C)CC4)cc3)nc3ccsc23)c1 [Olmutinib],0.914 ± 0.052,0.949 ± 0.025,0.953 ± 0.022,0.953 ± 0.0047,0.9443 ± 0.0083,0.978 ± 0.015,0.979 ± 0.02,0.977 ± 0.012,0.9749 ± 0.0091,0.931 ± 0.068,0.774 ± 0.074
COc1cc2nccc(Oc3ccc(NC(=O)Nc4cc(C)on4)c(Cl)c3)c2cc1OC [Tivozanib],0.987 ± 0.038,1.01 ± 0.026,0.9944 ± 0.0095,1.02 ± 0.038,1.02 ± 0.022,1.03 ± 0.02,1 ± 0.024,1.02 ± 0.018,0.981 ± 0.031,0.912 ± 0.036,0.768 ± 0.02
CNC(=O)c1cc(Oc2ccc(NC(=O)Nc3ccc(Cl)c(C(F)(F)F)c3)c(F)c2)ccn1 [Regorafenib],0.965 ± 0.055,0.959 ± 0.053,0.991 ± 0.036,0.975 ± 0.047,0.983 ± 0.042,0.979 ± 0.014,0.986 ± 0.034,0.973 ± 0.052,0.932 ± 0.058,0.87 ± 0.043,0.776 ± 0.033
Cc1ccc(F)c(NC(=O)Nc2ccc(-c3cccc4[nH]nc(N)c34)cc2)c1 [Linifanib],1 ± 0.043,0.998 ± 0.012,0.994 ± 0.011,0.978 ± 0.023,1 ± 0.028,1.01 ± 0.048,1 ± 0.014,0.982 ± 0.038,1.01 ± 0.018,0.975 ± 0.022,0.983 ± 0.043
Cc1cnc(Nc2ccc(OCCN3CCCC3)cc2)nc1Nc1cccc(S(=O)(=O)NC(C)(C)C)c1 [Fedratinib],1.01 ± 0.013,1 ± 0.036,1.02 ± 0.032,1.01 ± 0.027,0.98 ± 0.034,0.972 ± 0.024,0.904 ± 0.026,0.7114 ± 0.0066,0.145 ± 0.0063,0.00883 ± 0.0011,0.00587 ± 0.0018
C=CC(=O)N1CCC([C@@H]2CCNc3c(C(N)=O)c(-c4ccc(Oc5ccccc5)cc4)nn32)CC1 [Zanubrutinib],0.953 ± 0.033,0.956 ± 0.013,0.978 ± 0.025,0.985 ± 0.025,0.978 ± 0.023,0.943 ± 0.044,0.921 ± 0.027,0.942 ± 0.046,0.887 ± 0.053,0.888 ± 0.07,0.904 ± 0.049
CN1CCC(COc2cnc(-c3cccc(Cn4nc(-c5cccc(C#N)c5)ccc4=O)c3)nc2)CC1 [Tepotinib],0.997 ± 0.016,1.01 ± 0.013,1.01 ± 0.014,1 ± 0.013,0.971 ± 0.024,1 ± 0.017,0.99 ± 0.043,0.991 ± 0.035,0.969 ± 0.029,0.953 ± 0.017,0.887 ± 0.025
Cc1nc(NC(=O)N2CCC[C@H]2C(N)=O)sc1-c1ccnc(C(C)(C)C(F)(F)F)c1 [Alpelisib],0.955 ± 0.069,0.949 ± 0.05,0.95 ± 0.05,0.944 ± 0.046,0.894 ± 0.017,0.852 ± 0.028,0.733 ± 0.025,0.641 ± 0.029,0.559 ± 0.0059,0.485 ± 0.025,0.375 ± 0.009
